Laboratory results published in patent US4900748A (priority 1988, dated 1990).
Like-named read-outs stand apart in the source and are kept apart here.

Assays:
[1] = test system: acetyl- and butyryl-cholinesterase; format: biochemical
acetylcholinesterase = format: biochemical; details: for IC50: read-out: IC50, antiacetylcholinesterase (approximate)
[2] = target: Butyrylcholinesterase (Plasma) (Homo sapiens, UniProt P06276); assay: biochemical
[3] = target: Acetylcholinesterase (Caudate) (Homo sapiens, UniProt P22303); assay: biochemical
Acetylcholinesterase (Caudate), sequence (P22303 32-614): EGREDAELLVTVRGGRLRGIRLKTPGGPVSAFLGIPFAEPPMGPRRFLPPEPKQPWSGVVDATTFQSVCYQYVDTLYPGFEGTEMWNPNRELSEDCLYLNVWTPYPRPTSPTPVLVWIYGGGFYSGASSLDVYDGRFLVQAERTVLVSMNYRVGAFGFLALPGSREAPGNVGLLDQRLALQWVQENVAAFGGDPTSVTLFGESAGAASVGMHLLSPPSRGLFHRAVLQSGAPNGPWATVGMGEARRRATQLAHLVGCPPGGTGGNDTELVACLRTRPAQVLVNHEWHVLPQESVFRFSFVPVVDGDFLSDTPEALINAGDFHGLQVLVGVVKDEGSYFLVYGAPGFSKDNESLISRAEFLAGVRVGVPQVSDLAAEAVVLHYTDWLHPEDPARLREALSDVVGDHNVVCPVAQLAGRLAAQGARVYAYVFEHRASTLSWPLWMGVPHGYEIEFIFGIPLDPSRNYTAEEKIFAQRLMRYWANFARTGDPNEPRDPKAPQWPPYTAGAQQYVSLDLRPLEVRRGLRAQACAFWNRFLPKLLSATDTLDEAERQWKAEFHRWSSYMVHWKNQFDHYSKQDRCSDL

[4] = target: Acetylcholinesterase (RBC) (Homo sapiens, UniProt P22303); assay: biochemical
Acetylcholinesterase (RBC), sequence (P22303-2 with tags, fused parts or gaps limits assumed): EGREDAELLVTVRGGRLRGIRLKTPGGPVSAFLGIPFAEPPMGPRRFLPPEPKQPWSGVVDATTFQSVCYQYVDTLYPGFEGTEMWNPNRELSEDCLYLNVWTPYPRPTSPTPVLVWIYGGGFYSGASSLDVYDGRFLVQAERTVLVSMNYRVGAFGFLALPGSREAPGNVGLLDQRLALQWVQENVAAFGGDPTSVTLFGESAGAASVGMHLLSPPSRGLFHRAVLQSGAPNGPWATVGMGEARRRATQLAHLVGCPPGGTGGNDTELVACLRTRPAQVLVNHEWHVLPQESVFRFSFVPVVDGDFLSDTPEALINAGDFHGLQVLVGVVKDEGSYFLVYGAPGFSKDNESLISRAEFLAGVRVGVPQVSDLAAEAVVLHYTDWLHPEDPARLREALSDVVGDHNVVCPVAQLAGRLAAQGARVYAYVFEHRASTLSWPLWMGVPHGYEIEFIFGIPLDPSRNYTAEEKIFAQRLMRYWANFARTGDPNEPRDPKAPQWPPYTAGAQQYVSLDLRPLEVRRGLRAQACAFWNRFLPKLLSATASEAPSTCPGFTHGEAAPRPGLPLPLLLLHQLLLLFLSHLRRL

[5] = target: Butyrylcholinesterase (Cortex) (Homo sapiens, UniProt P06276); assay: biochemical
Butyrylcholinesterase (Cortex), sequence (P06276 29-602): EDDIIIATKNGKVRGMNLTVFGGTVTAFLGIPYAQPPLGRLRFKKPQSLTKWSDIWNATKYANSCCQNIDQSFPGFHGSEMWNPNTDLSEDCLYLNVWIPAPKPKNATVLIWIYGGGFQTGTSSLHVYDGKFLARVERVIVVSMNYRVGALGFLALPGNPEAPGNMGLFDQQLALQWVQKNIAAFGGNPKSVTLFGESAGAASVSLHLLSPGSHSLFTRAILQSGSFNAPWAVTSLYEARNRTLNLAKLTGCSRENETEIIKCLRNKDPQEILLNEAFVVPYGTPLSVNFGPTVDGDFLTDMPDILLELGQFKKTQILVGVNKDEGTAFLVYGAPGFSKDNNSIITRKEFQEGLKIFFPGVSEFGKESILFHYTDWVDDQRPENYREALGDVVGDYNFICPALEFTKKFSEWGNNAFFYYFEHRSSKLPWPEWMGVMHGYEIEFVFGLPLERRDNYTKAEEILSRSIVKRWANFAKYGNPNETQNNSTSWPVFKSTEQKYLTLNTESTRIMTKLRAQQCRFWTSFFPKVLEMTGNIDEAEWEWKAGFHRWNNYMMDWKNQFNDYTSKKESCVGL

[6] = target: Acetylcholinesterase (Eel) (Electrophorus electricus, UniProt O42275); assay: biochemical
Acetylcholinesterase (Eel), sequence (O42275 24-633): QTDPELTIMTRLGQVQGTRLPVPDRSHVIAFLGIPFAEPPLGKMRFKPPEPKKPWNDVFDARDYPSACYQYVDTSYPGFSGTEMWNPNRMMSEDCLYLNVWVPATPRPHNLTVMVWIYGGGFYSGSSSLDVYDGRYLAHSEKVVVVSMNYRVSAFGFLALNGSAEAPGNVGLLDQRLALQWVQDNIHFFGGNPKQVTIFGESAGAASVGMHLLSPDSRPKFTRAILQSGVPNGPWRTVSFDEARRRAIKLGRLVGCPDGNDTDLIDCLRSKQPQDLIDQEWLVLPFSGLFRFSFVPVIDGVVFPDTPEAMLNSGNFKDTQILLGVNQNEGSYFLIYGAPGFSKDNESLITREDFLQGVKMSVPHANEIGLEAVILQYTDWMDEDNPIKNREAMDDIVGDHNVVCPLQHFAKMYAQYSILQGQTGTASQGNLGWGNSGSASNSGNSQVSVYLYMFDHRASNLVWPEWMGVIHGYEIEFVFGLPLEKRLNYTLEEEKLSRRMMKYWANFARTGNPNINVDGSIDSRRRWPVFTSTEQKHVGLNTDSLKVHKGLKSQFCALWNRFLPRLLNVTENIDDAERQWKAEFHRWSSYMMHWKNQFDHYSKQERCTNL

butyrylcholinesterase = format: biochemical
[7] = target: Acetylcholinesterase (Cortex) (Homo sapiens, UniProt P22303); assay: biochemical
Acetylcholinesterase (Cortex), sequence (P22303 32-614): as the sequence (P22303 32-614) above

nicotinic AChR = details: cited from earlier work
neuromuscular AChR = details: cited from earlier work
[8] = read-out: IC50 Butyrylcholinesterase Plasma
[9] = read-out: IC50 Butyrylcholinesterase Cortex
[10] = read-out: IC50 Acetylcholinesterase Eel
[11] = read-out: IC50 Acetylcholinesterase Caudate
[12] = read-out: IC50 Acetylcholinesterase Cortex
[13] = read-out: IC50 Acetylcholinesterase RBC

Butyrylcholinesterase (Plasma), sequence (P06276 29-602): as the sequence (P06276 29-602) above

Row | Compound | specificity acetyl- versus butyryl-cholinesterase [1] | IC50 [2] [µM] | IC50 [3] [µM] | IC50 [4] [µM] | IC50 [5] [µM] | IC50 [6] [µM] | also measured
1 | CNC(=O)Oc1ccc2c(c1)[C@]1(C)CCN[C@@H]1N2C [YU-96, N--norphysostigmine] | equipotent versus both acetyl- and butyryl-cholinesterase |  |  |  |  |  | antiacetylcholinesterase potency in words (acetylcholinesterase): as potent against acetylcholinesterase as physostigmine itself
2 | CN1CC[C@@]2(C)c3cc(O)ccc3N(C)[C@@H]12 [(-)eseroline, (-)-eseroline, reference compound] |  | > 10 | > 10 | > 10 | > 10 | > 10 | 
3 | CN1CC[C@]2(C)c3cc(O)ccc3N(C)[C@H]12 [(+)eseroline, reference compound] |  | > 10 | > 10 | > 10 | > 10 | > 10 | 
4 | C=CCN1CC[C@@]2(C)c3cc(OC(=O)NC)ccc3N(C)[C@@H]12 [YU-110, N--allyl physostigmine] | equipotent versus both acetyl- and butyryl-cholinesterase | 0.00265 ± 0.00201 |  |  | 0.0156 ± 0.0069 |  | antiacetylcholinesterase potency in words (acetylcholinesterase): as potent against acetylcholinesterase as physostigmine itself
5 | C=CC[N+](C)(C)c1ccc(CCC(=O)CCc2ccc([N+](C)(C)CC=C)cc2)cc1 [BW284c51, reference compound] |  |  |  |  |  | 0.0073 | 
6 | COc1ccc(NC(=O)Oc2ccc3c(c2)[C@]2(C)CCN(C)[C@@H]2N3C)cc1 [YU-114, methoxyphenyl carbamoyleseroline] | approximately equally potent against both enzymes | 0.0276 ± 0.0018 |  |  | 0.224 ± 0.047 | 1.68 ± 0.38 | increase of antibutyrylcholinesterase potency (butyrylcholinesterase): ten-fold; reduction of antiacetylcholinesterase potency (acetylcholinesterase): approximately 10 fold
7 | CCCCCCCCNC(=O)Oc1ccc2c(c1)[C@]1(C)CCN(C)[C@@H]1N2C [YU-71, eseroline octylcarbamate] |  | 0.0036 ± 0.001 |  |  | 0.0087 ± 0.0037 |  | 
8 | CN1CC[C@@]2(C)c3cc(OC(=O)Nc4ccc(Cl)cc4)ccc3N(C)[C@@H]12 [YU-116, chlorophenyl carbamoyleseroline] | relatively specific for acetyl- rather than butyryl-cholinesterase | 4 ± 0.052 | 0.448 ± 0.029 | 0.654 ± 0.032 | 4.46 ± 1.29 | 1.8 ± 0.085 | IC50 [7]: 0.417 ± 0.088 µM; antiacetylcholinesterase potency in words (acetylcholinesterase): much less against acetylcholinesterase; reduction of antiacetylcholinesterase potency (acetylcholinesterase): approximately 10 fold; IC50 (acetylcholinesterase): ~0.5 µM
9 | CC(C)NP(=O)(NC(C)C)OP(=O)(NC(C)C)NC(C)C [iso-OMPA, reference compound] |  |  |  |  |  | > 1000 | 
10 | Ethoprop [reference compound] |  |  |  |  |  |  | IC50 [2, 8]: 0.3 µM; IC50 [5, 9]: 0.21 µM; IC50 [6, 10]: 120 µM
11 | CNC(=O)Oc1ccc2c(c1)C1(C)CC[N+](C)(C)C1N2C (single isomer, unassigned) [YU-117, methosulfate of (-)physostigmine] | more potent against acetylcholinesterase than against butyrylcholinesterase |  |  |  |  |  | IC50 [3, 11]: 0.0283 ± 0.0037 µM; IC50 [7, 12]: 0.0371 ± 0.0066 µM; IC50 [4, 13]: 0.0294 ± 0.0052 µM; IC50 [6, 10]: 0.0335 ± 0.0006 µM; antiacetylcholinesterase potency in words (acetylcholinesterase): as potent against acetylcholinesterase as physostigmine itself
12 | c1ccc(C2(N3CCCCC3)CCCCC2)cc1 [phencyclidine] |  |  |  |  |  |  | modification of AChR activation (nicotinic AChR): modify noncompetitively the activation of the AChR
13 | CNC(=O)Oc1ccc2c(c1)[C@]1(C)CCN(C)[C@@H]1N2C [(-) physo, (-)-physostigmine] |  |  |  |  |  |  | properties at the neuromuscular AChR (neuromuscular AChR): blocking as well as agonist properties
14 | CN1CC[C@@]2(C)c3cc(O)ccc3N(C)[C@@H]12 (relative stereo) [(+/-)eseroline, reference compound] |  | > 10 | > 10 | > 10 | > 10 | > 10 | 
15 | CN1CC[C@@]2(C)c3cc(OC(=O)Nc4ccccc4)ccc3N(C)[C@@H]12 [YU-79, eseroline phenylcarbamate] | relatively specific for acetyl- rather than butyryl-cholinesterase |  |  |  |  |  | IC50 [2, 8]: 1.3 µM; IC50 [3, 11]: 0.021 ± 0.001 µM; IC50 [7, 12]: 0.036 ± 0.003 µM; IC50 [4, 13]: 0.024 ± 0.006 µM; IC50 [5, 9]: 2.5 µM; IC50 [6, 10]: 0.35 ± 0.09 µM; IC50 (acetylcholinesterase): ~0.03 µM
16 | CCCCNC(=O)Oc1ccc2c(c1)[C@]1(C)CCN(C)[C@@H]1N2C [YU-120, butylcabamoyl eseroline] |  | 0.00413 ± 0.00125 | 0.0203 ± 0.0068 | 0.0176 ± 0.0091 | 0.016 ± 0.0044 | 0.152 ± 0.009 | effect of shortening the side chain on potency against acetyl- or butyryl-cholinesterase [1]: does not alter the potency of the compound against either acetyl- or butyryl-cholinesterase; IC50 [7]: 0.0208 ± 0.0037 µM
17 | CN1CC[C@@]2(C)c3cc(OC(=O)NCc4ccccc4)ccc3N(C)[C@@H]12 [YU-69-1, eseroline benzylcarbamate] |  | 0.0027 ± 0.0016 | 0.027 ± 0.01 | 0.026 ± 0.008 | 0.02 ± 0.011 | 0.46 ± 0.08 | IC50 [7]: 0.024 ± 0.005 µM
18 | CNC(=O)Oc1ccc2c(c1)[C@]1(C)CCN(CCc3ccccc3)[C@@H]1N2C [YU-112, N--phenylethyl physostigmine] |  |  | 0.191 ± 0.056 | 0.213 ± 0.038 |  |  | IC50 [7]: 0.155 ± 0.028 µM
